Data: US8551959B2, “Glycolipid and use thereof” (RIKEN, priority 2008, dated 2013)
“Also recorded” adds a separate entry of the source.

Legend:
[1] = test system: IFN-γ; experiment: IFN-γ content in serum (sandwich ELISA) after tail vein administration of synthetic glycolipid to mice; assay type: in vivo, C57BL/6 mice; conditions: for IFN-γ production level in serum compared with α-GalCer / IFN-γ production level in serum compared with α-GalCer and carba-glycolipid A: 6-60 hr; for IFN-γ production level in serum compared with α-GalCer and carba-glycolipid A: 100 μg/kg body weight, FIG. 1
Protocol: (§1) DMSO solutions (1 mg/mL concentration) of α-GalCer, carba-glycolipid A, compound 2-9, compound 3-4, compound 3-7 and compound 3-10 were prepared. The above-mentioned DMSO solutions were diluted with saline (manufactured by Otsuka Pharmaceutical Co., Ltd.) containing 0.5% Tween 20 (Bio-Rad) such that the dose would be 100 μg/kg body weight when 200 μL is administered to one mouse from the tail vein.
Each of the prepared solutions (200 μL) of carba-glycolipid A, compound 2-9, compound 3-4, compound 3-7 and compound 3-10 was injected to C57BL/6 mice (5 per group) from the tail vein. α-GalCer was used as a control substance, and 200 μL of α-GalCer solution prepared to a dose of 100 μg/kg body weight according to a similar method was injected from the tail vein. A group administered with a medium (200 μL of saline containing 0.5% Tween 20) was taken as a negative control. The blood (80 μL) was taken from the orbital plexus venosus 6, 12, 24, 36, 48 and 60 hr after administration, and the serum was prepared.
The content of IFN-γ in the serum after lapse of 6, 12, 24, 36, 48 and 60 hr from the administration was measured by sandwich ELISA (ENDOGEN). The measurement results (average value) of the IFN-γ production level and the standard deviation (STDEV) thereof are shown in FIG. 1.
By a method similar to Experimental Example 1, the content of IFN-γ in the serum after lapse of 6, 12, 24, 36, 48 and 60 hr from the administration of α-GalCer, compound 2-9, compound 3-4, compound 3-7, compound 3-10, compound 3-13 and compound 3-16 was measured. The measurement results (average value) of the IFN-γ production level and the standard deviation (STDEV) thereof are shown in FIG. 4.
By a method similar to Experimental Example 1 except that the dose of α-GalCer was 2 μg/mouse and the dose of compound 2-9 was 2 μg/mouse, 0.2 μg/mouse, 0.02 μg/mouse, 0.002 μg/mouse or 0.0002 μg/mouse, the content of IFN-γ in the serum after lapse of 6, 12, 24, 36, 48 and 60 hr from the administration of α-GalCer and compound 2-9 was measured. The measurement results (average value) of the IFN-γ production level and the standard deviation (STDEV) thereof are shown in FIG. 5.

[2] = non-patent document 7; cited from earlier work
[3] = test system: IL-4; experiment: IL-4 content in serum (Cytometric bead array) after tail vein administration of synthetic glycolipid to mice; assay type: in vivo, C57BL/6 mice; conditions: Experimental Example 3; 2, 0.2 or 0.02 μg/mouse; 3 and 6 hr; FIG. 7
Protocol: as §1, with “vein. […]” for “vein.”
The content of IL-4 in the serum after lapse of 3, 6 and 12 hr from the administration was measured by Cytometric bead array system (BD Biosciences), which is one kind of the ELISA method. […]
By a method similar to Experimental Example 1, the content of IL-4 in the serum after lapse of 3 and 6 hr from the administration of α-GalCer, compound 2-9, compound 3-4, compound 3-7, compound 3-10, compound 3-13 and compound 3-16 was measured. […]
By a method similar to Experimental Example 1 except that the dose of α-GalCer and compound 2-9 was 2 μg/mouse, 0.2 μg/mouse or 0.02 μg/mouse, the content of IL-4 in the serum after lapse of 3 and 6 hr from the administration of α-GalCer and compound 2-9 was measured. […]

[4] = test system: IL-12; experiment: IL-12 content in serum (Cytometric bead array) after tail vein administration of synthetic glycolipid to mice; assay type: in vivo, C57BL/6 mice; conditions: Experimental Example 3; 2, 0.2 or 0.02 μg/mouse; 3 and 6 hr; FIG. 9
Protocol: as §1, with “vein. […]” for “vein.”
The content of IL-12 in the serum after lapse of 3, 6 and 12 hr from the administration was measured by Cytometric bead array system (BD Biosciences), which is one kind of the ELISA method. […]
By a method similar to Experimental Example 1, the content of IL-12(p70) in the serum after lapse of 3 and 6 hr from the administration of α-GalCer, compound 2-9, compound 3-4, compound 3-7, compound 3-10, compound 3-13 and compound 3-16 was measured. […]
By a method similar to Experimental Example 1 except that the dose of α-GalCer and compound 2-9 was 2 μg/mouse, 0.2 μg/mouse or 0.02 μg/mouse, the content of IL-12(p70) in the serum after lapse of 3 and 6 hr from the administration of α-GalCer and compound 2-9 was measured. […]

[5] = test system: human NKT cells; conditions: cited from earlier work
[6] = test system: NKT cells; conditions: non-patent document 10; cited from earlier work
[7] = Experimental Example 2, conclusion from IFN-γ, IL-4 and IL-12 levels
[8] = Experimental Example 2, tail vein, FIG. 4
[9] = Experimental Example 1, tail vein
[10] = Experimental Example 1, conclusion from IFN-γ, IL-4 and IL-12 levels

Compound	Selective induction of IFN-γ production compared to α-GalCer [1, 7]	IFN-γ production level in serum compared with α-GalCer [1, 8]	IFN-γ production level in serum compared with α-GalCer and carba-glycolipid A [1, 9]	Selective induction of IFN-γ production compared to α-GalCer and carba-glycolipid A [1, 10]	also measured
CCCCCCCCCCCCCCCCCCCCCCCCCC(=O)N[C@@H](COC1OC(CO)C(O)C(O)C1O)[C@H](O)[C@H](O)CCCCCCCCCCCCCC (stereo partly drawn) [α-GalCer, reference compound]	–	–	–	–	IFN-γ/IL-4 ratio ([1]; Experimental Example 1): 2; Immunostimulatory activity in a series of synthesis analogs [2]: shows the strongest activity
CCCCCCCCCCCCCCCCCCCCCCCCCC(=O)N[C@@H](CO[C@H]1OC(COCCC)[C@H](O)[C@H](O)C1O)[C@H](O)[C@H](O)CCCCCCCCCCCCCC (stereo partly shown) [compound 3-16]	selectively induced production of IFN-γ in larger amounts	larger amount of IFN-γ than α-GalCer	–	–	–
CCCCCCCCCCCCCCCCCCCCCCCCCC(=O)N[C@@H](CO[C@H]1OC(CC)[C@H](O)[C@H](O)C1O)[C@H](O)[C@H](O)CCCCCCCCCCCCCC (stereo partly shown) [compound 3-4]	selectively induced production of IFN-γ in larger amounts	larger amount of IFN-γ than α-GalCer	larger amount of IFN-γ than α-GalCer and carba-glycolipid A	selectively induced production of IFN-γ in larger amounts	–
CCCCCCCCCCCCCCCCCCCCCCCCCC(=O)N[C@@H](CO[C@H]1OC(CF)[C@H](O)[C@H](O)C1O)[C@H](O)[C@H](O)CCCCCCCCCCCCCC (stereo partly shown) [compound 3-7]	selectively induced production of IFN-γ in larger amounts	larger amount of IFN-γ than α-GalCer	larger amount of IFN-γ than α-GalCer and carba-glycolipid A	selectively induced production of IFN-γ in larger amounts	–
CCCCCCCCCCCCCCCCCCCCCCCCCC(=O)N[C@@H](CO[C@H]1OC(COC)[C@H](O)[C@H](O)C1O)[C@H](O)[C@H](O)CCCCCCCCCCCCCC (stereo partly shown) [compound 2-9]	selectively induced production of IFN-γ in larger amounts	larger amount of IFN-γ than α-GalCer; also recorded: most strongly	larger amount of IFN-γ than α-GalCer and carba-glycolipid A; also recorded: most strongly	selectively induced production of IFN-γ in larger amounts	IFN-γ production level in serum compared with α-GalCer ([1]; Experimental Example 3, compound 2-9 at 2 to 0.0002 μg/mouse, α-GalCer 2 μg/mouse, FIG. 5): larger amount of IFN-γ than α-GalCer even by administration at a lower concentration; Selective induction of IFN-γ production compared to α-GalCer ([1]; Experimental Example 3, lower doses of compound 2-9): selectively induced production of IFN-γ in larger amounts; IL-4 production level in serum [3]: decreased as the dose of compound 2-9 was reduced; IL-12(p70) production level in serum as compared with α-GalCer [4]: up to 4 fold
CCCCCCCCCCCCCCCCCCCCCCCCCC(=O)N[C@@H](CO[C@H]1OC(C)[C@H](O)[C@H](O)C1O)[C@H](O)[C@H](O)CCCCCCCCCCCCCC (stereo partly shown) [compound 3-10]	selectively induced production of IFN-γ in larger amounts	larger amount of IFN-γ than α-GalCer	larger amount of IFN-γ than α-GalCer and carba-glycolipid A	selectively induced production of IFN-γ in larger amounts	–
CCCCCCCCCCCCCCCCCCCCCCCCCC(=O)N[C@@H](CO[C@H]1CC(CO)[C@H](O)C(O)C1O)[C@H](O)[C@H](O)CCCCCCCCCCCCCC (stereo partly shown) [carba-glycolipid A]	–	–	–	–	Activity on human NKT cells in vitro [5]: strong activity; Induction of IFN-γ production by NKT cells [6]: strongly induces IFN-γ production
CCCCCCCCCCCCCCCCCCCCCCCCCC(=O)N[C@@H](CO[C@H]1OC(COCC)[C@H](O)[C@H](O)C1O)[C@H](O)[C@H](O)CCCCCCCCCCCCCC (stereo partly shown) [compound 3-13]	selectively induced production of IFN-γ in larger amounts	larger amount of IFN-γ than α-GalCer	–	–	–
